From US20170252278A1, “INHIBITION OF MATURATION OF DENTAL BIOFILM AND CARIOGENIC PROPERTIES” (KONINKLIJKE PHILIPS N.V., priority 2014, published 2017)

How the values were obtained:
Format in all cases: cell-based
[1] = system: in vitro oral plaque biofilms; test: Lactic acid production assay of in vitro oral plaque biofilms; settings: for reduction of lactate production / lactic acid production after 96 h of growth: 10 μM; for total lactic acid production per biofilm (FIG. 2): 100 μM, biofilms grown 48 h, 3 h in BPW with 0.2% sucrose
Procedure: All compounds tested of Table 1 were obtained from Sigma Aldrich. All compounds of Table 2, except 3-oxo-N(2oxocyclohexyl)dodecanamide, were kindly provided by M. Meijler, University of the Negev, Israel. The compounds were dissolved in DMSO and stored at −20 C. The compounds were continuously present at the indicated concentrations during biofilm growth, but not during further phenotypic analysis, i.e. lactate production.
To estimate the cariogenic phenotype, lactic acid production of the in vitro oral plaque biofilms was determined prior to harvesting (Exerkate et al 2010). In short, the biofilms on coverslips were placed in a 24-well plate containing 1.5 ml of BPW with 0.2% sucrose. Lactic acid formation was allowed for 3 hr at 37° C. under anaerobic conditions. The total amount of lactic acid produced in this period was analyzed using a colorimetric assay described previously (van Loveren et al. (2000)) and expressed as mM lactic acid, and as μM lactic acid per 1×10^6 CFU.
Biofilms were grown for 48 h in buffered McBain medium supplemented with 0.2% sucrose in the presence of 100 μM of one of the compounds. Medium was refreshed twice every day. […]

[2] = system: in vitro oral plaque biofilms; test: In vitro oral plaque biofilm formation in the Amsterdam Active Attachment Model, CFU determination; settings: for effect on in vitro oral plaque biofilm formation: 10 μM, difference less than one log, not considered biologically relevant
Procedure: Stimulated saliva, used as inoculum, was collected on ice from ten donors. Saliva was donated 24 h after last brushing. The saliva was diluted 2-fold with 60% sterile glycerol, aliquoted and stored at −80° C. Before use, a pooled sample was prepared by mixing 200 μl of thawed saliva of each donor and vortexing for 30 seconds. In vitro oral plaque biofilms were inoculated 1:50 with pooled saliva.
In vitro oral plaque biofilms were grown in the Amsterdam Active Attachment Model (AAA-model, Exterkate et al. (2010)), assembled with glass coverslips (diameter 12 mm; Menzel, Braunschweig, Germany). The model was inoculated for 8 h with pooled saliva in buffered semi-defined McBain medium (2.5 g/l mucin (Sigma, St Louis, Mo.), 2.0 g/l Bacto peptone (Difco, Detroit, Mich.), 2.0 g/l Trypticase peptone (BBL, Cockeysville, Md.), 1.0 g/l yeast extract (BD Diagnostic Systems, Sparks, Md.), 0.35 g/l NaCl, 0.2 g/l KCl, 0.2 g/l CaCl2, 1 mg/l hemin (Sigma, St. Louis, Mo., USA), and 2 mg/l vitamin K1 (McBain et al. (2005)), with 50 mmol/1 PIPES at pH 7.0), with 0.2% sucrose.
In vitro oral plaque biofilms were grown in the AAA-model for 48-96 h in the presence of the compounds tested. The model was inoculated with saliva and incubated anaerobically at 37° C. for 8 hours to allow microbes to attach to the glass coverslips. After 8 hours of attachment, the inoculation medium was refreshed and in vitro oral plaque biofilms were grown for 16 hours. This refreshment routine was repeated daily until the day of harvesting.
In vitro oral plaque biofilms were harvested by transferring the glass coverslips into 2 ml phosphate buffered saline (PBS). The biofilms were dispersed using a Vibracell VCX130 sonicator with a maximum of 130 Watts and 20 kHz (Sonics & Materials, Newtown, USA). Bio films were sonicated on ice for 1 minute with a pulse rate of 50% and pulses of 1 second. Vibration amplitude was set to 40%.
To estimate the amount of in vitro oral plaque biofilm formation, total anaerobic colony forming units were determined. Briefly, serial dilutions of the dispersed bio films were made and plated on tryptic soy agar blood plates. Plates were subsequently incubated anaerobically for 96 h at 37° C. and colony forming units were determined by counting the number of colonies for each dilution.

[3] = system: in vitro oral plaque biofilms; test: Microbial composition of biofilms by 16S rDNA sequencing; settings: for shift in composition (Streptococcus down, Veillonella and Actinobacillus up) versus control: 10 μM; for Actinobacillus, share of biofilm composition / Actinomyces, share of biofilm composition / Campylobacter, share of biofilm composition / Fusobacterium, share of biofilm composition / Granulicatella, share of biofilm composition / Haemophilus, share of biofilm composition / Megasphaera, share of biofilm composition / Neisseria, share of biofilm composition / Other taxa, share of biofilm composition / Porphyromonas, share of biofilm composition / Prevotella, share of biofilm composition / Rothia, share of biofilm composition / Solobacterium, share of biofilm composition / Streptococcus, share of biofilm composition / Unclass. Pasteurellaceae, share of biofilm composition / Veillonella, share of biofilm composition: 3-Oxo-N 100 μM, furanones 10 μM
Procedure: DNA was isolated using phenol bead-beating followed by Agowa isolation, following the manufacturers instructions (LGC Genomics, Mag mini kit). Briefly, cells were mechanically disrupted four times at 1200 rpm for two minutes in addition of Tris-saturated Phenol, pH8, 0.1 mm zirconium beads and Mag lysis buffer. The DNA-containing phase was mixed with binding buffer and magnetic beads. DNA concentration was estimated by determining the absorbance at 260 nm using the nanodrop (Isogen, ND-1000).
PCR was performed in a final volume of 25 μl containing 1 μl of each primer ([…]), 1 μl dNTP (10 mM), 2.5 μl 10× DreamTaq Buffer including MgCl2 (Thermo Scientific), 0.2 μl DreamTaq DNA Polymerase (5 u/μ1, Thermo Scientific) and 50 ng of DNA. Initial denaturation was performed at 94° C. for 4 min, followed by 35 cycles of denaturation at 94° C. for 30 s, 54° C. annealing for 1 min, 72° C. for 1 min primer extension and a final extension at 72° C. for 5 min. Product formation was confirmed by electrophoresis of 5 μl on a 1% (w/v) agarose gel (Sphearo Q, Leiden, The Netherlands) stained with ethidium bromide.
These samples were analyzed by 16S rDNA Illumina sequencing at TNO Zeist (Netherlands).
Table 3. Microbial composition of biofilms grown for 48 (Table 3A) or 96 h (Table 3B) in the presence of different QS inhibitors. Composition was determined by 16S rDNA sequencing. The composition of the original inoculum used for all biofilms was also determined. “Unclass.” means: unclassified.

Structure (SMILES) | reduction of lactate production [1] | lactic acid production after 96 h of growth [1] | effect on in vitro oral plaque biofilm formation [2] | shift in composition (Streptococcus down, Veillonella and Actinobacillus up) versus control ([3]; 48 h) | Actinobacillus, share of biofilm composition ([3]; 48 h) [%] | Actinomyces, share of biofilm composition ([3]; 48 h) [%] | Campylobacter, share of biofilm composition ([3]; 48 h) [%] | Fusobacterium, share of biofilm composition ([3]; 48 h) [%] | Granulicatella, share of biofilm composition ([3]; 48 h) [%] | Haemophilus, share of biofilm composition ([3]; 48 h) [%] | Megasphaera, share of biofilm composition ([3]; 48 h) [%] | Neisseria, share of biofilm composition ([3]; 48 h) [%] | Other taxa, share of biofilm composition ([3]; 48 h) [%] | Porphyromonas, share of biofilm composition ([3]; 48 h) [%] | Prevotella, share of biofilm composition ([3]; 48 h) [%] | Rothia, share of biofilm composition ([3]; 48 h) [%] | Solobacterium, share of biofilm composition ([3]; 48 h) [%] | Streptococcus, share of biofilm composition ([3]; 48 h) [%] | Unclass. Pasteurellaceae, share of biofilm composition ([3]; 48 h) [%] | Veillonella, share of biofilm composition ([3]; 48 h) [%] | also measured
O=C1OCC(Br)=C1Br [3,4-Di-bromo, 3,4-Dibromo-2(5H)-furanone] | not observed | up-regulate | slightly effect | absent or even inversed | 3.7 | 0.0 | 0.2 | 0.0 | 0.1 | 0.0 | 0.0 | 0.0 | 0.1 | 0.0 | 0.0 | 0.0 | 0.1 | 60.8 | 0.2 | 34.8 | Actinobacillus, share of biofilm composition ([3]; 96 h): 3.4%; Actinomyces, share of biofilm composition ([3]; 96 h): 0.1%; Campylobacter, share of biofilm composition ([3]; 96 h): 1.6%; Fusobacterium, share of biofilm composition ([3]; 96 h): 0.0%; Granulicatella, share of biofilm composition ([3]; 96 h): 0.2%; Haemophilus, share of biofilm composition ([3]; 96 h): 0.0%; Megasphaera, share of biofilm composition ([3]; 96 h): 0.0%; Neisseria, share of biofilm composition ([3]; 96 h): 0.0%; Other taxa, share of biofilm composition ([3]; 96 h): 0.7%; Porphyromonas, share of biofilm composition ([3]; 96 h): 0.0%; Prevotella, share of biofilm composition ([3]; 96 h): 2.3%; Rothia, share of biofilm composition ([3]; 96 h): 0.0%; Solobacterium, share of biofilm composition ([3]; 96 h): 0.7%; Streptococcus, share of biofilm composition ([3]; 96 h): 38.0%; Unclass. Pasteurellaceae, share of biofilm composition ([3]; 96 h): 0.0%; Veillonella, share of biofilm composition ([3]; 96 h): 52.9%
CCCCCCCCCCCC(=O)N[C@H]1CCOC1=O [C12-HSL, N-[(3S)-tetrahydro-2-oxo-3-furanyl]-dodecanamide] | – | – | – | – | – | – | – | – | – | – | – | – | – | – | – | – | – | – | – | – | total lactic acid production per biofilm (FIG. 2) [1]: no effect
O=C1C=C(Br)/C(=C/Br)O1 [Furanone C30, (Z-)-4-Bromo-5-(bromomethylene)-2(5H)-furanone] | not observed | up-regulate | slightly effect | absent or even inversed | 4.9 | 0.1 | 0.0 | 0.0 | 0.0 | 0.0 | 0.0 | 0.0 | 0.0 | 0.0 | 0.0 | 0.0 | 0.1 | 66.2 | 0.0 | 28.6 | Actinobacillus, share of biofilm composition ([3]; 96 h): 4.5%; Actinomyces, share of biofilm composition ([3]; 96 h): 0.3%; Campylobacter, share of biofilm composition ([3]; 96 h): 0.0%; Fusobacterium, share of biofilm composition ([3]; 96 h): 0.0%; Granulicatella, share of biofilm composition ([3]; 96 h): 0.3%; Haemophilus, share of biofilm composition ([3]; 96 h): 0.0%; Megasphaera, share of biofilm composition ([3]; 96 h): 0.0%; Neisseria, share of biofilm composition ([3]; 96 h): 0.0%; Other taxa, share of biofilm composition ([3]; 96 h): 0.1%; Porphyromonas, share of biofilm composition ([3]; 96 h): 0.0%; Prevotella, share of biofilm composition ([3]; 96 h): 0.0%; Rothia, share of biofilm composition ([3]; 96 h): 0.0%; Solobacterium, share of biofilm composition ([3]; 96 h): 0.8%; Streptococcus, share of biofilm composition ([3]; 96 h): 34.4%; Unclass. Pasteurellaceae, share of biofilm composition ([3]; 96 h): 0.0%; Veillonella, share of biofilm composition ([3]; 96 h): 59.6%
CCCCCCCCCCCCCC(=O)N[C@H]1CCOC1=O [HSL-C14] | – | – | – | – | – | – | – | – | – | – | – | – | – | – | – | – | – | – | – | – | total lactic acid production per biofilm (FIG. 2) [1]: reduced lactic acid production; biofilm production (visible amount of biofilm) ([2]; Example 2, 100 μM, 48 h): toxic to the formation of biofilm
